Laboratory results from patent publication US20090197906A1, “REVERSION OF MALIGNANT PHENOTYPE WITH 9-HYDROXY ELLIPTICINE DERIVATIVES” (priority 2006, published 2009).
Where two headings read alike, the source gives them in different places.

Assays:
[1] = tested on: actin in NIH 3T3 EF extract; assay: fluorescence anisotropy assay of actin dynamics in cell extract; format: biochemical; conditions: for k (rate constant of F-actin elongation) / Δ mA (anisotropy enhancement, steady state F-actin): malignant NIH 3T3 EF extract
Protocol: Actin dynamics is known to be impaired in tumor cells with a subsequent decrease of F-actin to G-actin ratio. Actin dynamics has been quantified in tumor cell extracts using the fluorescence anisotropy assay which gains access to rate constant of F-actin elongation (k) and steady state concentration of F-actin (Δ mA).
All reactions were carried out at 22° C. and fluorescence anisotropy signal was recovered at 520 nm with excitation at 490 nm in a Beacon 2000 (Panvera). Alexa 488 actin (Molecular Probes) was centrifuged at 35 000 rpm for 2 h at 4° C. to sediment residual actin polymers in a Beckman L5-50B ultracentrifuge. […] 80% of the supernatant was withdrawn; the concentration was defined through fluorescence measurements (excitation at 490 nm and signal recovering at 520 nm). The ultracentrifuged actin concentration was calculated using the non ultracentrifuged Alexa 488 actin as a standard. The supernatant was aliquoted, frozen in liquid nitrogen and stored at −80° C.
Before experiment, an aliquot of ultracentrifuged Alexa 488 actin was diluted to a concentration of […] in G buffer (5 mM Tris pH 8.1, 2 mM CaCl2, 0.2 mM DTT, 0.2 mM ATP). 3 μl of diluted Alexa 488 actin was mixed in 168 μl of G buffer and actin monomers anisotropy was measured before the addition of 4 μl of polymerisation buffer (2.5 M KCl, 50 mM MgCl2, 25 mM ATP), 5 μl of G buffer in the presence or in the absence of the chemical molecule and 20 μl cellular extract of normal NIH 3T3 cells or malignant NIH 3T3 EF cells at 2 mg/ml. The final concentration of Alexa 488 actin was 4 nM. The ratio of unlabelled to labelled actin was about 140/4 nM. Measurements were made each 10 sec for 200 sec. Actin monomers anisotropy value was subtracted, yielding the anisotropy enhancement (Δ mA). The data were fitted with the equation Y=Ymax. [1−exp(−K.X)]. The curves start at zero and ascend to Ymax that corresponds to the steady state anisotropy value (Δ mA eq), with a rate constant K. Y is anisotropy values of which monomers anisotropy is subtracted and X is the time.

NCI-H510 [2] = assay: SRB (sulforhodamine B) cell proliferation assay; format: cell-based, human; conditions: NCI-H510, viability 72 h, mean +/− SEM
Protocol: (§1) Growth studies were performed using the Sulforhodamine B (SRB) calorimetric assay (Sigma).
(§2) SRB assay is used for cell density determination based on the measurement of cellular protein content. This method has been optimized for toxicity screening of compounds in adherent cells in a 96-well format (Skehan et al., Proc. Amer. Assoc. Cancer Res. 1989, 30:2436).
(§3) About 50 000 NCI-H510, NCI-H446 or NCI-H187 cells were seeded in a 96-well culture plate while adding increasing concentrations of BA016FZ539.
(§4) After an incubation period, cell monolayers are fixed with 10% (wt/vol) trichloroacetic acid and stained for 30 min, after which the excess dye is removed by washing repeatedly with 1% (vol/vol) acetic acid. The protein-bound dye is dissolved in 10 mM Tris base solution for optic density determination (OD) at 510 nm using a microplate reader.
(§5) The proliferation rates were calculated from the OD readings using the untreated cells as 100%.

NCI-H446 [3] = assay: SRB (sulforhodamine B) cell proliferation assay; format: cell-based, human; conditions: NCI-H446, viability 72 h, mean +/− SEM
Protocol: as §1, §2, §3, §4, §5

NCI-H187 [4] = assay: SRB (sulforhodamine B) cell proliferation assay; format: cell-based, human; conditions: NCI-H187, viability 72 h, mean +/− SEM
Protocol: as §1, §2, §3, §4, §5

Mia Paca-2 = assay: SRB (sulforhodamine B) cell proliferation assay; format: cell-based, human
Protocol: as §4, §5
(§6) The effects BA016FZ539 on the growth of MIA PaCa-2 and PANC-1 pancreatic cells were tested over a range of concentrations from 500 μM to 0.16 μM and measured by using the SRB calorimetric assay.
(§7) About 5000 MIA PaCa-2 or PANC-1 cells were seeded in a 96-well culture plate while adding increasing concentrations of BA016FZ539.
(§8) Growth studies were performed using both MTT and SRB calorimetric assay (Sigma). About 1500 B16F10 or 3000 pancreatic cells (MIA PaCa-2 and PANC1) were seeded in a 96-well culture plate before adding increasing concentrations of monomesylate or bimesylate.
(§9) The plates were incubated at 37° C. for 3 days and then were treated depending on SRB or MTT protocols (see material and methods).
(§10) In these two cases, the proliferation rates were calculated from the OD readings using the untreated cells as 100%.

PANC-1 = assay: SRB (sulforhodamine B) cell proliferation assay; format: cell-based, human
Protocol: as §4, §5, §6, §7, §8, §9, §10

NCI-H510 [5] = assay: MTT cell proliferation assay; format: cell-based, human; conditions: NCI-H510, viability 72 h
Protocol: (§11) Growth studies were performed using the [3-(4,5 dimethylthiazol-2-yl)-2,5-diphenyl-2H-tetrazolium bromide] (Sigma) calorimetric assay.
(§12) About 1500 to 5000 cells, according to the cell line, were seeded in a 96-well culture plate 24 hours before adding increasing concentrations of BA016DD537 or BA016FZ539. The plate was incubated at 37° C. for 3 days. 10 μl MTT stock solution (5 mg/ml in phosphate buffer saline) was added to 90 μl of complete medium in each well, the incubation was continued for 3 h at 37° C. 100 μl of lysis buffer (10% sodium dodecyl sulfate, 1% HCl 1N; pH 4.7) was added to each well, and the plate was incubated overnight. The absorbance was determined using an Integrated EIA Management System (Labsystem) at a wavelength of 570 nm. The proliferation rates were calculated from the OD readings using the untreated cells as 100%.
(§13) The SRB protein stain assay was compared with the tetrazolium (MTT) colorimetric assay for in vitro chemosensitivity testing of various human small cell lung cancer cell lines.

NCI-H446 [6] = assay: MTT cell proliferation assay; format: cell-based, human; conditions: NCI-H446, viability 72 h, mean +/− SEM
Protocol: as §11, §12, §13

NCI-H187 [7] = assay: MTT cell proliferation assay; format: cell-based, human; conditions: NCI-H187, viability 72 h
Protocol: as §11, §12, §13

Row | SMILES | effect on actin-F elongation rate constant and actin-F steady state value ([1]; NIH 3T3 EF cytosolic fractions) | k (rate constant of F-actin elongation) ([1]; compound at 100 nM) [s⁻¹] | Δ mA (anisotropy enhancement, steady state F-actin) ([1]; compound at 100 nM) | k (rate constant of F-actin elongation) ([1]; compound at 200 nM) [s⁻¹] | Δ mA (anisotropy enhancement, steady state F-actin) ([1]; compound at 200 nM) | IC50 (NCI-H510 [2]) [µM] | IC50 (NCI-H446 [3]) [µM] | IC50 (NCI-H187 [4]) [µM] | IC50 (Mia Paca-2; MIA PaCA-2, viability 72 h, mean +/− SEM (Example 9), read-out: IC50 (μM) SRB) [µM] | IC50 (Mia Paca-2; Mia Paca-2 (Example 11), read-out: IC50 (SRB Test-72 h)) [µM] | IC50 (PANC-1; PANC-1 (Example 11), read-out: IC50 (SRB Test-72 h)) [µM] | IC50 (PANC-1; PANC-1, viability 72 h, mean +/− SEM (Example 9), read-out: IC50 (μM) SRB) [µM] | IC50 (NCI-H510 [5]) [µM] | IC50 (NCI-H446 [6]) [µM] | IC50 (NCI-H187 [7]) [µM]
1 | Cc1c2cc[n+](CCN3CCCCC3)cc2c(C)c2c1[nH]c1ccc(O)cc12.[Cl-] [BA016DD537, 2-(β-piperidinoethyl)-9-hydroxyellipticinium chloride] | increases the actin-F elongation rate constant and the actin-F steady state value | 0.1636 | 52.38 | 0.1737 | 61.17 |  |  |  |  |  |  |  |  |  | 
2 | CS(=O)(=O)[O-].Cc1c2cc[n+](CCN3CCCCC3)cc2c(C)c2c1[nH]c1ccc(O)cc12 [BA016FZ539, 2-(betapiperidino-2-ethyl)-9-hydroxyellipticinium methanesulfonate] |  |  |  |  |  | 5.8 | 22.4 | 16.9 | 10.2 | 5.6 | 50.4 | 20.7 | 14.8 | 9.8 | 7.9
